Assay results reported in US12498375B2, “Water-soluble compound for detection of beta-amyloid” (KOREA ATOMIC ENERGY RESEARCH INSTITUTE, priority 2020, dated 2025).

Key:
[1] = molecular target: T1, Ab42 fibrils (Homo sapiens, UniProt P05067); test: Measurement of maximum excitation and emission wavelengths (SpectraMax M2); format: physicochemical; settings: 10 μM Ab42 fibrils, 5 μM compound, PBS buffer
T1 construct: 10 μM of Ab42 fibrils
Experimental: The maximum excitation and emission wavelengths λmax of the Compounds 1, 2, 4, and 5 according to the present invention were measured by SpectraMax M2 (molecular devices). 10 μM of Ab42 fibrils and 5 μM of each compound, produced by the aforementioned method, as final concentrations were used in a PBS buffer solution. In general, the excitation λmax is determined by scanning the fixed first emission, and the emission λmax is determined by scanning the excitation spectrum with the fixed λmax. The absorbance of each of the Compound 1, Compound 2, Compound 4, and Compound 5 synthesized above was measured, and the results thereof are shown in FIG. 2.

[2] = Retina-targeting experiment in laboratory mouse (IVIS spectrum CT imaging); format: in vivo; settings: 8 mg/kg tail vein, 3-month-old nude mouse
Experimental: A water-soluble Compound 1 (8 mg/kg) was injected into the tail vein of a 3-month-old nude mouse, and imaging was carried out with an IVIS spectrum CT system device, and the results thereof are shown in FIG. 4.

[3] = molecular target: T2, beta-amyloid (Aβ42 aggregate) (Homo sapiens, UniProt P05067); test: Evaluation of activity (fluorescence) before and after binding to beta-amyloid; settings: for Change in fluorescence intensity after binding to beta-amyloid: before vs after binding to Aβ42 aggregate; for Faβ/F0 (fluorescence reactivity to the Aβ peptide): before vs after binding to Aβ peptide
T2 construct: 10 μM of Ab42 fibrils
Experimental: Regarding each of the Compound 1, Compound 2, Compound 4, and Compound 5 synthesized above, the activity before and after binding to beta-amyloid was evaluated, and the results thereof are shown in FIG. 3. […] Moreover, the absorption wavelengths of each of the Compound 1, Compound 2, Compound 4, and Compound 5 before and after binding to beta-amyloid are shown in Table 2 below. […] In particular, regarding the fluorescence reactivity to the Aβ peptide, the Faβ/F0 values of the Compounds 1, 2, 4, and 5 were 4.3, 11.6, 3.1, and 9.6, respectively, indicating high fluorescence properties (see Table 2 below). Furthermore, from FIG. 3, it was confirmed that there was a clear difference in the emission wavelength before and after the compound according to the present invention bound to the amyloid plaque.

T1 sequence (P05067 672-713 limits assumed): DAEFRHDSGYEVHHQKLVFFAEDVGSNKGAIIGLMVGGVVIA
T2 sequence (P05067 672-713 limits assumed): as above

In the case of `CN(C)c1ccc(/C=C/C2=[N+](CCCCS(=O)(=O)[O-])c3ccc4ccccc4c3C2(C)C)cc1` [Compound 1], the λem [1] is reported as 620 nm, the λex [1] is reported as 560 nm and the “fluorescence signal in the eye of mouse” value ([2]; 1 minute after intravenous injection) is reported as “strong fluorescence signal”. For the same compound, the “fluorescence signal in the eye of mouse” value ([2]; 10 minutes after intravenous injection) was “weak fluorescence signal”, the “Change in fluorescence intensity after binding to beta-amyloid” value (shortened to “Change in fluorescence intensity”) [3] was 4.3 fold and the “Faβ/F0 (fluorescence reactivity to the Aβ peptide)” value (shortened to “Faβ/F0”) [3] was 4.3.

For `CN(C)c1ccc(-c2ccc(/C=C/C3=[N+](CCCCS(=O)(=O)[O-])c4ccc5ccccc5c4C3(C)C)s2)cc1` [Compound 2, (E)-4-(2-(2-(5-(4-(dimethylamino)phenyl)thiophen-2-yl)vinyl)-1,1-dimethyl-1H-benzo[e]indol-3-ium-3-yl)butane-1-sulfonate], the λem [1] was 765 nm, the λex [1] was 805 nm and the “Change in fluorescence intensity” value [3] was 11.6 fold. For the same compound, the “Faβ/F0” value [3] was 11.6.

In the case of `CC1(C)C(/C=C/c2ccc(N3CCNCC3)cc2)=[N+](CCCCS(=O)(=O)[O-])c2ccc3ccccc3c21` [Compound 4, (E)-4-(1,1-dimethyl-2-(4-(piperazin-1-yl)styryl)-1H-benzo[e]indol-3-ium-3-yl)butane-1-sulfonate], the λem [1] is reported as 620 nm, the λex [1] is reported as 570 nm and the “Change in fluorescence intensity” value [3] is reported as 3.1 fold. For the same compound, the “Faβ/F0” value [3] was 3.1.

For `CNc1ccc(-c2ccc(/C=C/C3=[N+](CCCCS(=O)(=O)[O-])c4ccc5ccccc5c4C3(C)C)s2)cc1` [Compound 5, (E)-4-(1,1-dimethyl-2-(2-(5-(4-(methylamino)phenyl)thiophen-2-yl)vinyl)-1H-benzo[e]indol-3-ium-3-yl)butane-1-sulfonate], the λem [1] was 760 nm, the λex [1] was 575 nm and the “Change in fluorescence intensity” value [3] was 9.6 fold. The “Faβ/F0” value [3] was 9.6.
